Data on 20 molecules can be found in US7041683B2 (Wyeth, priority 2001, dated 2006).

In data set [1] the target is T1, serotonin transporter (Rattus norvegicus, UniProt P31652).
T1 construct: displace ^3H-paroxetine from male rat frontal cortical membranes; from tissue; host or cells: male rat frontal cortex membranes
The experiment in a line: 3H-paroxetine displacement from male rat frontal cortical membranes (serotonin transporter affinity). The format is binding.

Data set [2] addresses T2, cloned human 5-HT1A receptors (Homo sapiens, UniProt P08908).
T2 construct: expressed in transfected cells
T2 sequence (P08908 1-422): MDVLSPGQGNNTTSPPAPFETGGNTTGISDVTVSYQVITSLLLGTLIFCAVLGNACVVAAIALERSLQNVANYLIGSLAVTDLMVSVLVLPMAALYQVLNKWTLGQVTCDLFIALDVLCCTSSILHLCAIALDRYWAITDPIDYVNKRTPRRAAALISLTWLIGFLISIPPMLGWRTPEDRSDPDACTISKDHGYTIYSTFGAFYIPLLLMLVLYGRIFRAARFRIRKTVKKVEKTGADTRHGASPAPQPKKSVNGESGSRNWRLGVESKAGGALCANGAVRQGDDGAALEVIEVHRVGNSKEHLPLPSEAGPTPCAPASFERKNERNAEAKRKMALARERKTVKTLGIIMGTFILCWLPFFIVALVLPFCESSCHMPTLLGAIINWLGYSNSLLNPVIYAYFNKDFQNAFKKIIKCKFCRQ
In words: 35S-GTPγS binding assay, antagonist activity at 5-HT1A receptors. Format: biochemical. The arrangement: 5-HT1A Function Imax (maximum inhibitory effect): unit not given here. How it is done:
Antagonist activity at 5-HT1A receptors was established by using a ^35S-GTPγS binding assay similar to that used by Lazareno and Birdsall (Br. J. Pharmacol. 109: 1120, 1993), in which the test compound's ability to affect the binding of ^35S-GTPγS to membranes containing cloned human 5-HT1A receptors was determined. Agonists produce an increase in binding whereas antagonists produce no increase but rather reverse the effects of the standard agonist 8-OHDPAT. The test compound's maximum inhibitory effect is represented as the Imax, while its potency is defined by the IC50.
On the technique in general: GTPγS is a poorly hydrolysed GTP analogue; its binding reports G protein activation.

For data set [3], the target named is T3, human 5-HT1A receptors (Homo sapiens, UniProt P08908).
T3 construct: expressed in transfected cells; host or cells: CHO cells
T3 sequence (P08908 1-422): T2 sequence (P08908 1-422)
In words: [3H] 8-OHDPAT displacement from 5-HT1A receptor in stably transfected CHO cells. Format: binding. The text has this:
High affinity for the serotonin 5-HT1A receptor was established by testing the claimed compound's ability to displace [^3H] 8-OHDPAT (dipropylaminotetralin) from the 5-HT1A serotonin receptor following a modification of the procedure of Hall et al., J. Neurochem. 44, 1685 (1985) which utilizes CHO cells stably transfected with human 5-HT1A receptors.

Where [4] appears, read: 35S-GTPγS binding, reversal of the effects of the standard agonist 8-OHDPAT.
[5] abbreviates: 35S-GTPγS binding, reversal of the effects of the standard agonist 8-OHDPAT, read-out: 5-HT1A Function IC50.

Counter-ions that a name gives are not always drawn. Like-named read-outs stand apart in the source and are kept apart here.

T1 sequence (P31652 whole entry): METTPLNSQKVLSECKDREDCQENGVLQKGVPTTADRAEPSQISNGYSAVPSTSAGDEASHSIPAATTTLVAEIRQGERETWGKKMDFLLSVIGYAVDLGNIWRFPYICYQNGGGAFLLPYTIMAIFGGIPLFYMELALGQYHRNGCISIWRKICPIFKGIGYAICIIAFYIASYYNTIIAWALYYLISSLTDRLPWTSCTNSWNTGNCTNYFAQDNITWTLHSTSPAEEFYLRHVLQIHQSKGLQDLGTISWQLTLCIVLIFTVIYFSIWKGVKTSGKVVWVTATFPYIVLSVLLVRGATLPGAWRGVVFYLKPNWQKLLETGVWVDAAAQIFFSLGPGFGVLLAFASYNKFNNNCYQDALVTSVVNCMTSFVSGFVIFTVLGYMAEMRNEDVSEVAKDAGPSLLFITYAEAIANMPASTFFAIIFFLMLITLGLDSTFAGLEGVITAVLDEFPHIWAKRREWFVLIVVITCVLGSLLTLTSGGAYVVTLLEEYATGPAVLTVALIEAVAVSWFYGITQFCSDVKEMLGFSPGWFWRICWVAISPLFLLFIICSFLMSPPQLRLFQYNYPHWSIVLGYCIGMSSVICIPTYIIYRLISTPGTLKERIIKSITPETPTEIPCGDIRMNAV

In the case of `COc1cccc2c1OC(CN1CC=C(c3c[nH]c4ccc(C#N)cc34)CC1)CO2` (centres unmarked) (as salt: hydrochloride) (hydrate or solvate) [Example 7, 3-[1-(8-Methoxy-2,3-dihydro-benzo[1,4]dioxin-2-ylmethyl)-1,2,3,6-tetrahydro-pyridin-4-yl]-1H-indole-5-carbonitrile], the melting point (usually the temperature of the solid-liquid transition) was in the range of 235 to 238 °C.

As to `COc1ccc2[nH]cc(C3=CCN(CC4COc5ccccc5O4)CC3)c2c1` (centres unmarked) (as salt: oxalate) [Example 1, 5-Methoxy-3-[4-[1,2,3,6-tetrahydro-1-[2-(2,3-dihydro[1,4]benzodioxinyl)]methyl]pyridinyl]indole], the melting point is 120 °C (dec.).

Take `Fc1ccc2[nH]cc(C3=CCN(CC4COc5ccccc5O4)CC3)c2c1` (centres unmarked) (as salt: oxalate) [Example 2, 5-Fluoro-3-[4-[1,2,3,6-tetrahydro-1-[2-(2,3-dihydro[1,4]benzodioxinyl)]methyl]pyridinyl]indole]: the melting point is 145 °C (dec.).

`COc1cccc2c1O[C@@H](CN1CC=C(c3c[nH]c4ccc(F)cc34)CC1)CO2` (as salt: oxalate) [Example 14, 5-Fluoro-3-[1-(8-methoxy-2,3-dihydro-benzo[1,4]dioxin-2-ylmethyl)-1,2,3,6-tetrahydro-pyradin-4-yl]-1H-indole] had a melting point of 154 to 156 °C.

Molecule `COc1cccc2c1OC(CN1CC=C(c3c[nH]c4ccccc34)CC1)CO2` (centres unmarked) (hydrate or solvate) [Example 5, 3-[1-(8-Methoxy-2,3-dihydro-benzo[1,4]dioxin-2-ylmethyl)-1,2,3,6-tetrahydro-pyridin-4-yl]-1H-indole] gave a melting point of 203 to 205 °C.

The molecule `Nc1ccc2c(c1)OCC(CN1CC=C(c3c[nH]c4ccccc34)CC1)O2` (single isomer, unassigned) [Example 3, 3-[4-(1H-Indol-3-yl)-3,6-dihydro-2H-pyridin-1-ylmethyl]-2,3-dihydro-benzo[1,4]dioxin-7-ylamine] returned a melting point of 204 to 206 °C.

As for `Nc1ccc2c(c1)O[C@@H](CN1CC=C(c3c[nH]c4ccccc34)CC1)CO2` (single isomer, unassigned) [Example 3], the Ki (usually the equilibrium dissociation constant of an inhibitor or competing ligand from its target) is 1.16 nM in data set [1] and 31 nM in data set [3]. Moreover, the IC50 (commonly the midpoint of a concentration-inhibition curve) in data set [2] is 232 nM. The “5-HT1A Function Imax (maximum inhibitory effect)” value in data set [2] (setting [4]) is recorded as “(96.0)”.

The molecule `COc1ccc2[nH]cc(C3=CCN(CC4COc5ccccc5O4)CC3)c2c1` (centres unmarked) [Example 1, 5-Methoxy-3-[4-[1,2,3,6-tetrahydro-1-[2-(2,3-dihydro[1,4]benzodioxinyl)]methyl]pyridinyl]indole] came in with a Ki in data set [3] of 27.2 nM.

For the molecule `Fc1ccc2[nH]cc(C3=CCN(CC4COc5ccccc5O4)CC3)c2c1` (centres unmarked) [Example 2, 5-Fluoro-3-[4-[1,2,3,6-tetrahydro-1-[2-(2,3-dihydro[1,4]benzodioxinyl)]methyl]pyridinyl]indole], the Ki came out at 16 nM in data set [1] and 68.3 nM in data set [3].

`Nc1ccc2c(c1)OCC(CN1CC=C(c3c[nH]c4ccccc34)CC1)O2` (centres unmarked) [Example 4, 2-[4-(1H-Indol-3-yl)-3,6-dihydro-2H-pyridin-1-ylmethyl]-2,3-dihydro-benzo[1,4]dioxin-6-ylamine] gave a melting point of 199 to 200 °C. For the same molecule, affinity in data set [1] was put at a Ki of 2.03 nM. The “5-HT1A Function Imax (maximum inhibitory effect)” value in data set [2] (setting [4]) is recorded as “(90.0)”. The IC50 in data set [2] (setting [5]) came out at 240 nM. The inhibitory constant (Ki) in data set [3] (displacement of [3H] 8-OHDPAT, CHO cells stably transfected with human 5-HT1A receptors, read-out: 5-HT1A Receptor Affinity KI) stood at 132 nM.

As to `COc1cccc2c1OC(CN1CC=C(c3c[nH]c4ccccc34)CC1)CO2` (centres unmarked) [Example 5, 3-[1-(8-Methoxy-2,3-dihydro-benzo[1,4]dioxin-2-ylmethyl)-1,2,3,6-tetrahydro-pyridin-4-yl]-1H-indole], the Ki was determined as 0.17 nM in data set [1] and 2.85 nM in data set [3]. The “5-HT1A Function Imax (maximum inhibitory effect)” value in data set [2] (setting [4]) is recorded as “(89.3)”. In addition, the IC50 in data set [2] (setting [5]) was 57.3 nM.

The molecule `Nc1ccc2c(c1)OCC(CN1CC=C(c3c[nH]c4ccc(F)cc34)CC1)O2` (centres unmarked) [Example 6, 2-[4-(5-Fluoro-1H-indol-3-yl)-3,6-dihydro-2H-pyridin-1-ylmethyl]-2,3-dihydro-benzo[1,4]dioxin-6-ylamine] had a melting point of 172 to 174 °C. The same molecule returned a Ki in data set [1] of 0.34 nM. The “5-HT1A Function Imax (maximum inhibitory effect)” value in data set [2] (setting [4]) is reported as “(96.7)”. In addition, the concentration for half-maximal inhibition (IC50) in data set [2] (setting [5]) was determined as 411 nM. The same molecule showed a Ki in data set [3] of 46.7 nM.

Regarding `COc1cccc2c1OC(CN1CC=C(c3c[nH]c4ccc(C#N)cc34)CC1)CO2` (centres unmarked) [Example 7, 3-[1-(8-Methoxy-2,3-dihydro-benzo[1,4]dioxin-2-ylmethyl)-1,2,3,6-tetrahydro-pyridin-4-yl]-1H-indole-5-carbonitrile], the inhibitory constant (Ki) was 1.04 nM in data set [1] and 7.95 nM in data set [3]. Moreover, the “5-HT1A Function Imax (maximum inhibitory effect)” value in data set [2] (setting [4]) is “(100)”. The IC50 in data set [2] (setting [5]) stood at 82.5 nM.

`COc1cccc2c1O[C@@H](CN1CC=C(c3c[nH]c4ncccc34)CC1)CO2` [Example 8, 3-[1-(8-Methoxy-2,3-dihydro-benzo[1,4]dioxin-2-ylmethyl)-1,2,3,6-tetrahydro-pyridin-4-yl]-1H-pyrrole[2,3-b]pyridine] displayed a melting point of 207 to 210 °C. In data set [1], the Ki was determined as 39 nM. Also, the “5-HT1A Function Imax (maximum inhibitory effect)” value in data set [2] (setting [4]) is given as “(94.0)”. The IC50 in data set [2] (setting [5]) stood at 26 nM. In data set [3], this molecule had a Ki of 4.3 nM.

As to `COc1cccc2c1OC(CN1CC=C(c3c[nH]c4cc(F)ccc34)CC1)CO2` (centres unmarked) [Example 9, 6-Fluoro-3-[1-(8-methoxy-2,3-dihydro-1,4-benzodioxin-2-ylmethyl)-1,2,3,6-tetrahydro-pyridin-4-yl]-1H-indole], the melting point lay in the range of 184 to 185 °C. For the same molecule, affinity in data set [1] was put at a Ki of 0.6 nM. In addition, in data set [2] (setting [4]), the “5-HT1A Function Imax (maximum inhibitory effect)” value is listed as “(80.0)”. In addition, in data set [2] (setting [5]), the IC50 worked out at 272 nM. This molecule also registered a Ki in data set [3] of 4.88 nM.

The molecule `NC(=O)c1cccc2c1OC(CN1CC=C(c3c[nH]c4ccccc34)CC1)CO2` (centres unmarked) [Example 10, 3-[4-(1H-Indol-3-yl)-3,6-dihydro-2H-pyridin-1-ylmethyl]-2,3-dihydro-benzo[1,4]dioxine-5-carboxylic Acid Amide] displayed a melting point of 175 to 178 °C. The same molecule yielded a Ki in data set [1] of 4.96 nM. Besides, the “5-HT1A Function Imax (maximum inhibitory effect)” value in data set [2] (setting [4]) is “(61.0)”. In addition, the IC50 in data set [2] (setting [5]) is 1280 nM. In data set [3], the Ki was 64.6 nM.

`NC(=O)c1cccc2c1OC(CN1CC=C(c3c[nH]c4ccc(F)cc34)CC1)CO2` (centres unmarked) [Example 11, 3-[4-(5-Fluoro-1H-indol-3-yl)-3,6-dihydro-2H-pyridin-1-ylmethyl]-2,3-dihydro-benzo[1,4]dioxine-5-carboxylic Acid Amide] had a melting point of 195 to 197 °C. Besides, in data set [1], the Ki stood at 3.13 nM. Besides, in data set [2] (setting [4]), the “5-HT1A Function Imax (maximum inhibitory effect)” value is given as “(60.0)”. Also, the IC50 in data set [2] (setting [5]) was found to be 736 nM. The same molecule had a Ki in data set [3] of 70.6 nM.

Molecule `Fc1cccc2c1OC(CN1CC=C(c3c[nH]c4ccccc34)CC1)CO2` (centres unmarked) [Example 12, 3-(1-{[8-Fluoro-2,3-dihydro-1,4-benzodioxin-2-yl]methyl}-1,2,3,6-tetrahydropyridin-4-yl)-1H-indole] returned a melting point of 174 to 177 °C. In data set [1], this molecule gave a Ki of 49 nM. Besides, the “5-HT1A Function Imax (maximum inhibitory effect)” value in data set [2] (setting [4]) is given as “(76.0)”. Further, the IC50 in data set [2] (setting [5]) amounted to 521 nM. This molecule returned a Ki in data set [3] of 35.5 nM.

For `COc1ccc2c(c1)OC(CN1CC=C(c3c[nH]c4ccccc34)CC1)CO2` (centres unmarked) [Example 13, 3-(1-{[7-Methoxy-2,3-dihydro-1,4-benzodioxin-2-yl]methyl}-1,2,3,6-tetrahydropyridin-4-yl)-1H-indole], the melting point is 166 to 168 °C. Moreover, the Ki in data set [1] was 40 nM. Further, in data set [2] (setting [4]), the “5-HT1A Function Imax (maximum inhibitory effect)” value is recorded as “(100)”. Moreover, the IC50 in data set [2] (setting [5]) was 522 nM. Also, the Ki in data set [3] came out at 17.3 nM.

For the molecule `COc1cccc2c1O[C@@H](CN1CC=C(c3c[nH]c4ccc(F)cc34)CC1)CO2` [Example 14, 5-Fluoro-3-[1-(8-methoxy-2,3-dihydro-benzo[1,4]dioxin-2-ylmethyl)-1,2,3,6-tetrahydro-pyradin-4-yl]-1H-indole], the values for the Ki in data set [1] and in data set [3] were 1.79 nM and 8.57 nM, respectively. For the same molecule, the “5-HT1A Function Imax (maximum inhibitory effect)” value in data set [2] (setting [4]) was “(100)”. The 50% inhibitory concentration (IC50) in data set [2] (setting [5]) turned out to be 70 nM.
